From US20250236639A1, “NEUROACTIVE STEROIDS AND COMPOSITIONS THEREOF” (Sage Therapeutics, Inc., priority 2019, published 2025) come the findings set out here.

The test deals with GABAA receptor. The test is described as follows: Steroid inhibition of [35S]-TBPS binding, rat brain cortical membranes. To be noted: 3 nM [35S]-TBPS, in the presence of 5 mM GABA. How it is done: [^35S]-t-Butylbicyclophosphorothionate (TBPS) binding assays using rat brain cortical membranes in the presence of 5 mM GABA has been described (Gee et al, J. Pharmacol. Exp. Ther. 1987, 241, 346-353; Hawkinson et al, Mol. Pharmacol. 1994, 46, 977-985; Lewin, A. H et al., Mol. Pharmacol. 1989, 35, 189-194).
Briefly, cortices are rapidly removed following decapitation of carbon dioxide-anesthetized Sprague-Dawley rats (200-250 g). The cortices are homogenized in 10 volumes of ice-cold 0.32 M sucrose using a glass/teflon homogenizer and centrifuged at 1500×g for 10 min at 4° C. The resultant supernatants are centrifuged at 10,000×g for 20 min at 4° C. to obtain the P2 pellets. The P2 pellets are resuspended in 200 mM NaCl/50 mM Na—K phosphate pH 7.4 buffer and centrifuged at 10,000×g for 10 min at 4° C. This washing procedure is repeated twice and the pellets are resuspended in 10 volumes of buffer. Aliquots ([…]) of the membrane suspensions are incubated with 3 nM [^35S]-TBPS and […] aliquots of test drug dissolved in dimethyl sulfoxide (DMSO) (final 0.5%) in the presence of 5 mM GABA. The incubation is brought to a final volume of 1.0 mL with buffer. Nonspecific binding is determined in the presence of […] and ranged from 15 to 25%. Following a 90 min incubation at room temp, the assays are terminated by filtration through glass fiber filters (Schleicher and Schuell No. 32) using a cell harvester (Brandel) and rinsed three times with ice-cold buffer. Filter bound radioactivity is measured by liquid scintillation spectrometry. Non-linear curve fitting of the overall data for each drug averaged for each concentration is done using Prism (GraphPad). […] The concentration of test compound producing 50% inhibition (IC50) of specific binding and the maximal extent of inhibition (Imax) are determined for the individual experiments with the same model used for the overall data and then the means±SEM.s of the individual experiments are calculated.
Various compounds are or can be screened to determine their potential as modulators of [^35S]-TBPS binding in vitro. These assays are or can be performed in accordance with the above

Broadly, the IC50 is the point on the concentration scale where inhibition reaches its midpoint.

Molecules are shown by their SMILES. A value given as a limit tells only on which side of the number the result lay.

Take `CO[C@@H]1C[C@H]2[C@H](CC[C@@H]3[C@@H]2CC[C@@]2(C)[C@H]3CC[C@@H]2[C@@](C)(O)Cn2cc(C#N)cn2)C[C@]1(C)O` [Compound 61, 1-((R)-2-hydroxy-2-((2R,3S,5R,8R,9R,10S,13S,14S,17S)-3-hydroxy-2-methoxy-3,13-dimethylhexadecahydro-1H-cyclopenta[a]phenanthren-17-yl)propyl)-1H-pyrazole-4-carbonitrile]: the IC50 lay within 100 to 1000 nM.

Regarding `COC[C@@]1(O)CC[C@H]2[C@@H](CC[C@@H]3[C@@H]2CC[C@@]2(C)[C@H]3CC[C@@H]2[C@@](C)(O)Cn2cc(C#N)cn2)C1` [Compound 20, 1-((R)-2-hydroxy-2-((3R,5S,8R,9R,10S,13S,14S,17S)-3-hydroxy-3-(methoxymethyl)-13-methylhexadecahydro-1H-cyclopenta[a]phenanthren-17-yl)propyl)-1H-pyrazole-4-carbonitrile], the IC50 was in the range of 100 to 1000 nM.

As for `COC[C@@]1(O)CC[C@@]2(C)[C@H](CC[C@@H]3[C@@H]2CC[C@@]2(C)[C@H]3CC[C@@H]2[C@](C)(Cn2cc(C#N)cn2)OC)C1` [Compound 55, 1-((R)-2-((3R,5R,8R,9S,10S,13S,14S,17S)-3-hydroxy-3-(methoxymethyl)-10,13-dimethylhexadecahydro-1H-cyclopenta[a]phenanthren-17-yl)-2-methoxypropyl)-1H-pyrazole-4-carbonitrile], the half-maximal inhibitory concentration (IC50) is 100 to 1000 nM.

Consider `CCC[C@@]1(O)CC[C@H]2[C@H](CC[C@@H]3[C@@H]2CC[C@@]2(C)[C@H]3CC[C@@H]2[C@](C)(O)Cn2ccc(C#N)n2)C1` [Compound 22, 1-((S)-2-hydroxy-2-((3R,5R,8R,9R,10S,13S,14S,17S)-3-hydroxy-13-methyl-3-propylhexadecahydro-1H-cyclopenta[a]phenanthren-17-yl)propyl)-1H-pyrazole-3-carbonitrile], for which the IC50 is under 100 nM.

Turning to `CC[C@]12CC[C@@](C)(O)C[C@H]1CC[C@H]1[C@@H]3CC[C@H]([C@@](C)(Cn4cc(C#N)cn4)OC)[C@@]3(C)CC[C@@H]12` [Compound 5, 1-((S)-2-((3R,5R,8S,9S,10S,13S,14S,17S)-10-ethyl-3-hydroxy-3,13-dimethylhexadecahydro-1H-cyclopenta[a]phenanthren-17-yl)-2-methoxypropyl)-1H-pyrazole-4-carbonitrile], the IC50 is under 100 nM.

Turning to `COC[C@@]1(O)CC[C@H]2[C@H](CC[C@@H]3[C@@H]2CC[C@@]2(C)[C@H]3CC[C@@H]2[C@@](C)(O)Cn2cc(C#N)cn2)C1` [Compound 30, 1-((R)-2-hydroxy-2-((3R,5R,8R,9R,10S,13S,14S,17S)-3-hydroxy-3-(methoxymethyl)-13-methylhexadecahydro-1H-cyclopenta[a]phenanthren-17-yl)propyl)-1H-pyrazole-4-carbonitrile], the IC50 was in the range of 100 to 1000 nM.

As to `CC[C@@]1(O)CC[C@H]2[C@H](CC[C@@H]3[C@@H]2CC[C@@]2(C)[C@H]3CC[C@@H]2[C@](C)(O)Cn2cc(C#N)cn2)C1` [Compound 11, 1-((S)-2-((3R,5R,8R,9R,10S,13S,14S,17S)-3-ethyl-3-hydroxy-13-methylhexadecahydro-1H-cyclopenta[a]phenanthren-17-yl)-2-hydroxypropyl)-1H-pyrazole-4-carbonitrile], the IC50 was under 100 nM.

Regarding `CC[C@]12CC[C@@](C)(O)C[C@H]1CC[C@H]1[C@@H]3CC[C@H]([C@](C)(O)Cn4cc(C#N)cn4)[C@@]3(C)CC[C@@H]12` [Compound 3, 1-((S)-2-((3R,5R,8S,9S,10S,13S,14S,17S)-10-ethyl-3-hydroxy-3,13-dimethylhexadecahydro-1H-cyclopenta[a]phenanthren-17-yl)-2-hydroxypropyl)-1H-pyrazole-4-carbonitrile], the IC50 was under 100 nM.

For the compound `CC[C@]12CC[C@@](C)(O)C[C@H]1CC[C@H]1[C@@H]3CC[C@H]([C@@](C)(O)Cn4cc(C#N)cn4)[C@@]3(C)CC[C@@H]12` [Compound 4, 1-((R)-2-((3R,5R,8S,9S,10S,13S,14S,17S)-10-ethyl-3-hydroxy-3,13-dimethylhexadecahydro-1H-cyclopenta[a]phenanthren-17-yl)-2-hydroxypropyl)-1H-pyrazole-4-carbonitrile], the IC50 was under 100 nM.

For the compound `COC[C@@]1(O)CC[C@H]2[C@H](CC[C@@H]3[C@@H]2CC[C@]2(C)[C@@H](C(C)(C)Cn4cc(C#N)cn4)CC[C@@H]32)C1` [Compound 56, 1-(2-((3R,5R,8R,9R,10S,13S,14S,17S)-3-hydroxy-3-(methoxymethyl)-13-methylhexadecahydro-1H-cyclopenta[a]phenanthren-17-yl)-2-methylpropyl)-1H-pyrazole-4-carbonitrile], the IC50 was under 100 nM.

Consider `CC[C@]12CC[C@](O)(COC)C[C@H]1CC[C@H]1[C@@H]3CC[C@H]([C@@](C)(O)Cn4cc(C#N)cn4)[C@@]3(C)CC[C@@H]12` [Compound 43, 1-((R)-2-((3R,5R,8S,9S,10S,13S,14S,17S)-10-ethyl-3-hydroxy-3-(methoxymethyl)-13-methylhexadecahydro-1H-cyclopenta[a]phenanthren-17-yl)-2-hydroxypropyl)-1H-pyrazole-4-carbonitrile], for which the IC50 was under 100 nM.

Turning to `C[C@H]1C[C@H]2[C@H](CC[C@@H]3[C@@H]2CC[C@@]2(C)[C@H]3CC[C@@H]2[C@@](C)(O)Cn2cc(C#N)cn2)C[C@]1(C)O` [Compound 51, 1-((R)-2-hydroxy-2-((2S,3S,5R,8R,9R,10S,13S,14S,17S)-3-hydroxy-2,3,13-trimethylhexadecahydro-1H-cyclopenta[a]phenanthren-17-yl)propyl)-1H-pyrazole-4-carbonitrile], the IC50 was under 100 nM.

For `CCC[C@@]1(O)CC[C@@]2(C)[C@@H](CC[C@@H]3[C@@H]2CC[C@@]2(C)[C@H]3CC[C@@H]2[C@](C)(O)Cn2cc(C#N)cn2)C1` [Compound 17, 1-((S)-2-hydroxy-2-((3R,5S,8R,9S,10S,13S,14S,17S)-3-hydroxy-10,13-dimethyl-3-propylhexadecahydro-1H-cyclopenta[a]phenanthren-17-yl)propyl)-1H-pyrazole-4-carbonitrile], the IC50 was in the range of 100 to 1000 nM.

Take `CCC[C@@]1(O)CC[C@@]2(CC)[C@H](CC[C@H]3[C@@H]4CC[C@H]([C@@](C)(O)Cn5cc(C#N)cn5)[C@@]4(C)CC[C@@H]32)C1` [Compound 45, 1-((R)-2-((3R,5R,8S,9S,10S,13S,14S,17S)-10-ethyl-3-hydroxy-13-methyl-3-propylhexadecahydro-1H-cyclopenta[a]phenanthren-17-yl)-2-hydroxypropyl)-1H-pyrazole-4-carbonitrile]: the IC50 fell in the range of 100 to 1000 nM.

`COC[C@@]1(O)CC[C@H]2[C@H](CC[C@@H]3[C@@H]2CC[C@@]2(C)[C@H]3CC[C@@H]2[C@](C)(O)Cn2cc(C#N)cn2)C1` [Compound 29, 1-((S)-2-hydroxy-2-((3R,5R,8R,9R,10S,13S,14S,17S)-3-hydroxy-3-(methoxymethyl)-13-methylhexadecahydro-1H-cyclopenta[a]phenanthren-17-yl)propyl)-1H-pyrazole-4-carbonitrile]: the IC50 is under 100 nM.

Turning to `C[C@@H]1C[C@H]([C@](C)(O)Cn2cc(C#N)cn2)[C@@]2(C)CC[C@H]3[C@@H](CC[C@@H]4C[C@](C)(O)CC[C@@H]43)[C@H]12` [Compound 48, 1-((S)-2-hydroxy-2-((3R,5R,8R,9R,10S,13S,14S,15R,17S)-3-hydroxy-3,13,15-trimethylhexadecahydro-1H-cyclopenta[a]phenanthren-17-yl)propyl)-1H-pyrazole-4-carbonitrile], the IC50 is under 100 nM.

For `CCC[C@@]1(O)CC[C@H]2[C@H](CC[C@@H]3[C@@H]2CC[C@@]2(C)[C@H]3CC[C@@H]2[C@](C)(Cn2cc(C#N)cn2)OC)C1` [Compound 37, 1-((R)-2-((3R,5R,8R,9R,10S,13S,14S,17S)-3-hydroxy-13-methyl-3-propylhexadecahydro-1H-cyclopenta[a]phenanthren-17-yl)-2-methoxypropyl)-1H-pyrazole-4-carbonitrile], the IC50 lay within 100 to 1000 nM.

Regarding `C[C@@H]1C[C@H]([C@@](C)(O)Cn2cc(C#N)cn2)[C@@]2(C)CC[C@H]3[C@@H](CC[C@@H]4C[C@](C)(O)CC[C@@H]43)[C@H]12` [Compound 49, 1-((R)-2-hydroxy-2-((3R,5R,8R,9R,10S,13S,14S,15R,17S)-3-hydroxy-3,13,15-trimethylhexadecahydro-1H-cyclopenta[a]phenanthren-17-yl)propyl)-1H-pyrazole-4-carbonitrile], the 50% inhibitory concentration (IC50) was under 100 nM.
